Data from patent US20230085307A1, “PYRIDAZINONE COMPOUND AND HERBICIDE” (NISSAN CHEMICAL CORPORATION, priority 2019, published 2023).

Experiments:
[1] = system: barnyard grass; assay: Test Example 3: herbicidal effect by foliage application, Wagner pot (Table 18, symbol H); type: in vivo, barnyard grass (Echinochloa crus-galli); details: 320 g/ha
Outline: (§1)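 Plants were sown in alluvial soil held under 0.1–0.5 cm standing water and grown 14 days in a greenhouse at 25–30 °C. An emulsifiable formulation, water-diluted to the set dose, was then sprayed onto the foliage, and effects were scored three weeks later using previously defined criteria.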

[2] = system: Chinese sprangletop; assay: Test Example 3: herbicidal effect by foliage application, Wagner pot (Table 18, symbol D); type: in vivo, chinese sprangletop (Leptochloa chinensis); details: 320 g/ha
Outline: as §1

[3] = system: rice flat sedge; assay: Test Example 3: herbicidal effect by foliage application, Wagner pot (Table 18, symbol E); type: in vivo, rice flat sedge (Cyperus iria); details: 320 g/ha
Outline: as §1

[4] = system: southern crabgrass; assay: Test Example 4: herbicidal effect by soil treatment (Table 19, symbol F); type: in vivo, southern crabgrass (Digitaria ciliaris); details: amount of applied herbicide 320 g/ha
Outline: (§2)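 Herbicidal effect was rated 3 weeks after treatment, using the scoring criteria of an earlier test. The compound, formulated as an emulsion and diluted in water to a set herbicide amount, had been sprayed uniformly on soil over freshly sown seeds. Growth took place in a greenhouse at 25° C. to 30° C.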

[5] = system: green foxtail; assay: Test Example 4: herbicidal effect by soil treatment (Table 19, symbol G); type: in vivo, green foxtail (Setaria viridis); details: amount of applied herbicide 320 g/ha
Outline: as §2

[6] = system: barnyard grass; assay: Test Example 4: herbicidal effect by soil treatment (Table 19, symbol H); type: in vivo, barnyard grass (Echinochloa crus-galli); details: amount of applied herbicide 320 g/ha
Outline: as §2

[7] = system: wild oat; assay: Test Example 4: herbicidal effect by soil treatment (Table 19, symbol I); type: in vivo, wild oat (Avena fatua); details: amount of applied herbicide 320 g/ha
Outline: as §2

[8] = system: blackgrass; assay: Test Example 4: herbicidal effect by soil treatment (Table 19, symbol J); type: in vivo, blackgrass (Alopecurus myosuroides); details: amount of applied herbicide 320 g/ha
Outline: as §2

[9] = system: Italian ryegrass; assay: Test Example 4: herbicidal effect by soil treatment (Table 19, symbol K); type: in vivo, Italian ryegrass (Lolium multiflorum); details: amount of applied herbicide 320 g/ha
Outline: as §2

[10] = system: windgrass; assay: Test Example 4: herbicidal effect by soil treatment (Table 19, symbol L); type: in vivo, windgrass (Apera spica-venti); details: amount of applied herbicide 320 g/ha
Outline: as §2

[11] = system: velvetleaf; assay: Test Example 4: herbicidal effect by soil treatment (Table 19, symbol M); type: in vivo, velvetleaf (Abutilon theophrasti); details: amount of applied herbicide 320 g/ha
Outline: as §2

[12] = system: redroot pigweed; assay: Test Example 4: herbicidal effect by soil treatment (Table 19, symbol N); type: in vivo, redroot pigweed (Amaranthus retroflexus); details: amount of applied herbicide 320 g/ha
Outline: as §2

[13] = system: lambsquarters; assay: Test Example 4: herbicidal effect by soil treatment (Table 19, symbol O); type: in vivo, lambsquarters (Chenopodium album); details: amount of applied herbicide 320 g/ha
Outline: as §2

[14] = system: chickweed; assay: Test Example 4: herbicidal effect by soil treatment (Table 19, symbol P); type: in vivo, common chickweed (Stellaria media); details: amount of applied herbicide 320 g/ha
Outline: as §2

[15] = system: persian speedwell; assay: Test Example 4: herbicidal effect by soil treatment (Table 19, symbol R); type: in vivo, Persian speedwell (Veronica persica); details: amount of applied herbicide 320 g/ha
Outline: as §2

[16] = system: southern crabgrass; assay: Test Example 5: herbicidal effect by foliage application, plastic box (Table 20, symbol F); type: in vivo, southern crabgrass (Digitaria ciliaris); details: 320 g/ha
Outline: (§3)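 Foliar spray test: emulsion formulation diluted in water to a set application rate, sprayed onto 14-day-old plants raised in diluvial soil at 25° C to 30° C under glass. Both herbicidal effect and crop effect rated visually three weeks later.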

[17] = system: green foxtail; assay: Test Example 5: herbicidal effect by foliage application, plastic box (Table 20, symbol G); type: in vivo, green foxtail (Setaria viridis); details: 320 g/ha
Outline: as §3

[18] = system: barnyard grass; assay: Test Example 5: herbicidal effect by foliage application, plastic box (Table 20, symbol H); type: in vivo, barnyard grass (Echinochloa crus-galli); details: 320 g/ha
Outline: as §3

[19] = system: wild oat; assay: Test Example 5: herbicidal effect by foliage application, plastic box (Table 20, symbol I); type: in vivo, wild oat (Avena fatua); details: 320 g/ha
Outline: as §3

[20] = system: blackgrass; assay: Test Example 5: herbicidal effect by foliage application, plastic box (Table 20, symbol J); type: in vivo, blackgrass (Alopecurus myosuroides); details: 320 g/ha
Outline: as §3

[21] = system: Italian ryegrass; assay: Test Example 5: herbicidal effect by foliage application, plastic box (Table 20, symbol K); type: in vivo, Italian ryegrass (Lolium multiflorum); details: 320 g/ha
Outline: as §3

[22] = system: windgrass; assay: Test Example 5: herbicidal effect by foliage application, plastic box (Table 20, symbol L); type: in vivo, windgrass (Apera spica-venti); details: 320 g/ha
Outline: as §3

[23] = system: velvetleaf; assay: Test Example 5: herbicidal effect by foliage application, plastic box (Table 20, symbol M); type: in vivo, velvetleaf (Abutilon theophrasti); details: 320 g/ha
Outline: as §3

[24] = system: redroot pigweed; assay: Test Example 5: herbicidal effect by foliage application, plastic box (Table 20, symbol N); type: in vivo, redroot pigweed (Amaranthus retroflexus); details: 320 g/ha
Outline: as §3

[25] = system: lambsquarters; assay: Test Example 5: herbicidal effect by foliage application, plastic box (Table 20, symbol O); type: in vivo, lambsquarters (Chenopodium album); details: 320 g/ha
Outline: as §3

[26] = system: chickweed; assay: Test Example 5: herbicidal effect by foliage application, plastic box (Table 20, symbol P); type: in vivo, common chickweed (Stellaria media); details: 320 g/ha
Outline: as §3

[27] = system: persian speedwell; assay: Test Example 5: herbicidal effect by foliage application, plastic box (Table 20, symbol R); type: in vivo, Persian speedwell (Veronica persica); details: 320 g/ha
Outline: as §3

[28] = foliage application, three weeks after application
[29] = foliage application after 14-day growth, evaluated three weeks after application

Row | Compound | herbicidal effect on barnyard grass (H) [1] | herbicidal effect on Chinese sprangletop (D) [2] | herbicidal effect on rice flat sedge (E) [3] | Herbicidal effect by soil treatment, F: southern crabgrass [4] | Herbicidal effect by soil treatment, G: green foxtail [5] | Herbicidal effect by soil treatment, H: barnyard grass [6] | Herbicidal effect by soil treatment, I: wild oat [7] | Herbicidal effect by soil treatment, J: blackgrass [8] | Herbicidal effect by soil treatment, K: Italian ryegrass [9] | Herbicidal effect by soil treatment, L: windgrass [10] | Herbicidal effect by soil treatment, M: velvetleaf [11] | Herbicidal effect by soil treatment, N: redroot pigweed [12] | Herbicidal effect by soil treatment, O: lambsquarters [13] | Herbicidal effect by soil treatment, P: chickweed [14] | Herbicidal effect by soil treatment, R: persian speedwell [15] | also measured
1 | Cc1nn(C)c(=O)c(-c2c(-c3ccc(C(F)(F)F)cc3)sc3cc(F)ccc23)c1O [3-139] | 4 (Herbicidal rate of 70% or more and less than 90%) | 4 (Herbicidal rate of 70% or more and less than 90%) | 4 (Herbicidal rate of 70% or more and less than 90%) | 0 (Herbicidal rate of 5% or less (almost no effect)) | 0 (Herbicidal rate of 5% or less (almost no effect)) | 0 (Herbicidal rate of 5% or less (almost no effect)) | 0 (Herbicidal rate of 5% or less (almost no effect)) | 0 (Herbicidal rate of 5% or less (almost no effect)) | 0 (Herbicidal rate of 5% or less (almost no effect)) | 0 (Herbicidal rate of 5% or less (almost no effect)) | 2 (Herbicidal rate of 20% or more and less than 40%) | 4 (Herbicidal rate of 70% or more and less than 90%) | 3 (Herbicidal rate of 40% or more and less than 70%) | 0 (Herbicidal rate of 5% or less (almost no effect)) | 1 (Herbicidal rate of 5% or more and less than 20%) | F: southern crabgrass, herbicidal effect grade [16, 28]: 2 (Herbicidal rate of 20% or more and less than 40%); G: green foxtail, herbicidal effect grade [17, 28]: 4 (Herbicidal rate of 70% or more and less than 90%); H: barnyard grass, herbicidal effect grade [18, 28]: 5 (Herbicidal rate of 90% or more (almost completely withered)); I: wild oat, herbicidal effect grade [19, 28]: 3 (Herbicidal rate of 40% or more and less than 70%); J: blackgrass, herbicidal effect grade [20, 28]: 0 (Herbicidal rate of 5% or less (almost no effect)); K: Italian ryegrass, herbicidal effect grade [21, 28]: 5 (Herbicidal rate of 90% or more (almost completely withered)); L: windgrass, herbicidal effect grade [22, 28]: 5 (Herbicidal rate of 90% or more (almost completely withered)); M: velvetleaf, herbicidal effect grade [23, 28]: 5 (Herbicidal rate of 90% or more (almost completely withered)); N: redroot pigweed, herbicidal effect grade [24, 28]: 3 (Herbicidal rate of 40% or more and less than 70%); O: lambsquarters, herbicidal effect grade [25, 28]: 5 (Herbicidal rate of 90% or more (almost completely withered)); P: chickweed, herbicidal effect grade [26, 28]: 5 (Herbicidal rate of 90% or more (almost completely withered)); R: persian speedwell, herbicidal effect grade [27, 28]: 5 (Herbicidal rate of 90% or more (almost completely withered))
2 | Cc1nn(C)c(=O)c(-c2c(-c3ccc(OC(F)(F)F)cc3)sc3cc(Cl)ccc23)c1O [3-149] | 4 (Herbicidal rate of 70% or more and less than 90%) | 5 (Herbicidal rate of 90% or more (almost completely withered)) | 4 (Herbicidal rate of 70% or more and less than 90%) | 0 (Herbicidal rate of 5% or less (almost no effect)) | 0 (Herbicidal rate of 5% or less (almost no effect)) | 0 (Herbicidal rate of 5% or less (almost no effect)) | 0 (Herbicidal rate of 5% or less (almost no effect)) | 0 (Herbicidal rate of 5% or less (almost no effect)) | 0 (Herbicidal rate of 5% or less (almost no effect)) | 0 (Herbicidal rate of 5% or less (almost no effect)) | 1 (Herbicidal rate of 5% or more and less than 20%) | 3 (Herbicidal rate of 40% or more and less than 70%) | 0 (Herbicidal rate of 5% or less (almost no effect)) | 0 (Herbicidal rate of 5% or less (almost no effect)) | 0 (Herbicidal rate of 5% or less (almost no effect)) | herbicidal effect on F: southern crabgrass (evaluation grade 0-5) [16, 29]: 3 (Herbicidal rate of 40% or more and less than 70%); herbicidal effect on G: green foxtail (evaluation grade 0-5) [17, 29]: 4 (Herbicidal rate of 70% or more and less than 90%); herbicidal effect on H: barnyard grass (evaluation grade 0-5) [18, 29]: 3 (Herbicidal rate of 40% or more and less than 70%); herbicidal effect on I: wild oat (evaluation grade 0-5) [19, 29]: 0 (Herbicidal rate of 5% or less (almost no effect)); herbicidal effect on J: blackgrass (evaluation grade 0-5) [20, 29]: 5 (Herbicidal rate of 90% or more (almost completely withered)); herbicidal effect on K: Italian ryegrass (evaluation grade 0-5) [21, 29]: 3 (Herbicidal rate of 40% or more and less than 70%); herbicidal effect on L: windgrass (evaluation grade 0-5) [22, 29]: 5 (Herbicidal rate of 90% or more (almost completely withered)); herbicidal effect on M: velvetleaf (evaluation grade 0-5) [23, 29]: 4 (Herbicidal rate of 70% or more and less than 90%); herbicidal effect on N: redroot pigweed (evaluation grade 0-5) [24, 29]: 3 (Herbicidal rate of 40% or more and less than 70%); herbicidal effect on O: lambsquarters (evaluation grade 0-5) [25, 29]: 4 (Herbicidal rate of 70% or more and less than 90%); herbicidal effect on P: chickweed (evaluation grade 0-5) [26, 29]: 0 (Herbicidal rate of 5% or less (almost no effect)); herbicidal effect on R: persian speedwell (evaluation grade 0-5) [27, 29]: 4 (Herbicidal rate of 70% or more and less than 90%)
